From ChEMBL document CHEMBL1201862, “PubChem BioAssay data set” (2004)
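96-well plates; 48 h exposure; 5 concentrations. Endpoints by linear interpolation between flanking doses. Not reached: highest tested concentration assigned. The concentration for 50% growth inhibition is given as GI50.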 Calls of active or inactive are those of the source. No stated cut-off is given here; in the data, active = GI50 up to about 1.1 µM and inactive = higher.

How the values were obtained:
Experiment in all cases: DTP human tumour cell line panel, 48 h
CCRF-CEM = test system: CCRF-CEM
HL-60 = test system: HL-60
HOP-92 = test system: HOP-92
IGROV-1 = test system: IGROV-1
K562 = test system: K562
NCI-H522 = test system: NCI-H522
OVCAR-3 = test system: OVCAR-3
RXF 393 = test system: RXF 393
SK-MEL-5 = test system: SK-MEL-5
UACC-257 = test system: UACC-257
UACC-62 = test system: UACC-62
ACHN = test system: ACHN
HCT-15 = test system: HCT-15
SNB-19 = test system: SNB-19

| SMILES | GI50 (CCRF-CEM) | GI50 (HL-60) | GI50 (HOP-92) | GI50 (IGROV-1) | GI50 (K562) | GI50 (NCI-H522) | GI50 (OVCAR-3) | GI50 (RXF 393) | GI50 (SK-MEL-5) | GI50 (UACC-257) | GI50 (UACC-62) | GI50 (ACHN) | GI50 (HCT-15) [µM] | GI50 (SNB-19) |
| --- | --- | --- | --- | --- | --- | --- | --- | --- | --- | --- | --- | --- | --- | --- |
| CCN(CC)C(=O)C/C(C)=N/NC(=O)c1ccncc1 | > 100 µM (inactive) | > 100 µM (inactive) | > 100 µM (inactive) | > 100 µM (inactive) | > 100 µM (inactive) | > 100 µM (inactive) | > 100 µM (inactive) | > 100 µM (inactive) | > 100 µM (inactive) | > 100 µM (inactive) | > 100 µM (inactive) | – | – | – |
| Cc1ccc(NC(=O)C2C(=O)N(c3ccc(C)c(C)c3)C(=O)C2N=N)cc1C (configuration not stated) | – | > 100 µM (inactive) | 47.9 µM (inactive) | 97.1 µM (inactive) | – | 38.1 µM (inactive) | > 100 µM (inactive) | > 100 µM (inactive) | 67 µM (inactive) | > 100 µM (inactive) | > 100 µM (inactive) | 90.4 µM (inactive) | 74.6 | > 100 µM (inactive) |
| COc1ccc2c3c([nH]c2c1[N+](=O)[O-])C(C)N(C)CC3 (configuration not stated) | 32.4 µM (inactive) | 39.6 µM (inactive) | 34 µM (inactive) | > 100 µM (inactive) | 18.1 µM (inactive) | > 100 µM (inactive) | > 100 µM (inactive) | – | 49.5 µM (inactive) | > 100 µM (inactive) | > 100 µM (inactive) | > 100 µM (inactive) | 80.4 | > 100 µM (inactive) |
| Cc1c(C(=O)/C=C/c2ccccc2O)c(=O)n(-c2ccccc2)n1C | 9.55 µM (inactive) | – | 28.3 µM (inactive) | 42.1 µM (inactive) | – | 18.1 µM (inactive) | 29.2 µM (inactive) | 14.2 µM (inactive) | 12.3 µM (inactive) | 22.4 µM (inactive) | 29 µM (inactive) | 19 µM (inactive) | 24.2 | 43.8 µM (inactive) |
| S=C(Nc1ccccc1)Nc1ccccc1SC(/C=C/NNC1=NN=C(c2ccccc2)C(c2ccccc2)N1)c1ccccc1 (configuration not stated) | 28.5 µM (inactive) | 10.4 µM (inactive) | 3.97 µM (inactive) | > 100 µM (inactive) | 64.9 µM (inactive) | 8.85 µM (inactive) | > 100 µM (inactive) | 8.02 µM (inactive) | 44.6 µM (inactive) | – | > 100 µM (inactive) | 69.7 µM (inactive) | > 100 | > 100 µM (inactive) |
| CCOC1=C2C(=O)OC(=O)C2C2CCCCC2=C1 (configuration not stated) | > 100 µM (inactive) | > 100 µM (inactive) | > 100 µM (inactive) | > 100 µM (inactive) | > 100 µM (inactive) | > 100 µM (inactive) | > 100 µM (inactive) | > 100 µM (inactive) | > 100 µM (inactive) | > 100 µM (inactive) | > 100 µM (inactive) | – | > 100 | > 100 µM (inactive) |
| Cc1ccc(-c2nc3c(C(=O)NCCN(C)C)cccc3[nH]2)cc1 | 11.5 µM (inactive) | 14.2 µM (inactive) | 13.1 µM (inactive) | 15.9 µM (inactive) | 13.7 µM (inactive) | – | 21.5 µM (inactive) | 10.7 µM (inactive) | 13.7 µM (inactive) | 14 µM (inactive) | 18.1 µM (inactive) | 10.3 µM (inactive) | 13.9 | 26.1 µM (inactive) |
| O=C(N/C(=C\c1ccc(/C=C(\NC(=O)c2ccccc2)c2nc3cc(Cl)ccc3[nH]2)cc1)c1nc2cc(Cl)ccc2[nH]1)c1ccccc1 | 5.31 µM (inactive) | – | 35.1 µM (inactive) | 46 µM (inactive) | 12 µM (inactive) | 13.6 µM (inactive) | 22.4 µM (inactive) | 13.4 µM (inactive) | 17.4 µM (inactive) | 36.4 µM (inactive) | 16.6 µM (inactive) | 26.9 µM (inactive) | 21.4 | 51.9 µM (inactive) |
| COC(=O)[C@@]12C(=O)C=CC(=O)C1C1C(=CC2C)OC2OC3(CCCCC3)OC21 (some centres not stated) | 2.52 µM (inactive) | 3.85 µM (inactive) | – | 18.1 µM (inactive) | 6.9 µM (inactive) | 9.71 µM (inactive) | 19.6 µM (inactive) | – | 19.3 µM (inactive) | 17.1 µM (inactive) | 15.2 µM (inactive) | 16.9 µM (inactive) | 13.2 | 17.7 µM (inactive) |
